{"source": "ChEMBL document CHEMBL1201862", "about": "“PubChem BioAssay data set” (2004)", "key": {"[1]": {"target": "Protein Tat (Human immunodeficiency virus type 1 group M subtype B (isolate HXB2)(HIV-1), UniProt P04608)", "sequence (P04608 whole entry)": "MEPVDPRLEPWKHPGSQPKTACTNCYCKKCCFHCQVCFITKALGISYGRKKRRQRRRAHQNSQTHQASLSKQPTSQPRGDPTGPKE", "format": "functional"}, "[2]": {"target": "T1, Voltage-gated N-type calcium channel alpha-1B subunit/Amyloid beta A4 precursor protein-binding family A member 1 (Homo sapiens, UniProt Q00975+Q02410)", "T1 sequence (Q00975 whole entry)": "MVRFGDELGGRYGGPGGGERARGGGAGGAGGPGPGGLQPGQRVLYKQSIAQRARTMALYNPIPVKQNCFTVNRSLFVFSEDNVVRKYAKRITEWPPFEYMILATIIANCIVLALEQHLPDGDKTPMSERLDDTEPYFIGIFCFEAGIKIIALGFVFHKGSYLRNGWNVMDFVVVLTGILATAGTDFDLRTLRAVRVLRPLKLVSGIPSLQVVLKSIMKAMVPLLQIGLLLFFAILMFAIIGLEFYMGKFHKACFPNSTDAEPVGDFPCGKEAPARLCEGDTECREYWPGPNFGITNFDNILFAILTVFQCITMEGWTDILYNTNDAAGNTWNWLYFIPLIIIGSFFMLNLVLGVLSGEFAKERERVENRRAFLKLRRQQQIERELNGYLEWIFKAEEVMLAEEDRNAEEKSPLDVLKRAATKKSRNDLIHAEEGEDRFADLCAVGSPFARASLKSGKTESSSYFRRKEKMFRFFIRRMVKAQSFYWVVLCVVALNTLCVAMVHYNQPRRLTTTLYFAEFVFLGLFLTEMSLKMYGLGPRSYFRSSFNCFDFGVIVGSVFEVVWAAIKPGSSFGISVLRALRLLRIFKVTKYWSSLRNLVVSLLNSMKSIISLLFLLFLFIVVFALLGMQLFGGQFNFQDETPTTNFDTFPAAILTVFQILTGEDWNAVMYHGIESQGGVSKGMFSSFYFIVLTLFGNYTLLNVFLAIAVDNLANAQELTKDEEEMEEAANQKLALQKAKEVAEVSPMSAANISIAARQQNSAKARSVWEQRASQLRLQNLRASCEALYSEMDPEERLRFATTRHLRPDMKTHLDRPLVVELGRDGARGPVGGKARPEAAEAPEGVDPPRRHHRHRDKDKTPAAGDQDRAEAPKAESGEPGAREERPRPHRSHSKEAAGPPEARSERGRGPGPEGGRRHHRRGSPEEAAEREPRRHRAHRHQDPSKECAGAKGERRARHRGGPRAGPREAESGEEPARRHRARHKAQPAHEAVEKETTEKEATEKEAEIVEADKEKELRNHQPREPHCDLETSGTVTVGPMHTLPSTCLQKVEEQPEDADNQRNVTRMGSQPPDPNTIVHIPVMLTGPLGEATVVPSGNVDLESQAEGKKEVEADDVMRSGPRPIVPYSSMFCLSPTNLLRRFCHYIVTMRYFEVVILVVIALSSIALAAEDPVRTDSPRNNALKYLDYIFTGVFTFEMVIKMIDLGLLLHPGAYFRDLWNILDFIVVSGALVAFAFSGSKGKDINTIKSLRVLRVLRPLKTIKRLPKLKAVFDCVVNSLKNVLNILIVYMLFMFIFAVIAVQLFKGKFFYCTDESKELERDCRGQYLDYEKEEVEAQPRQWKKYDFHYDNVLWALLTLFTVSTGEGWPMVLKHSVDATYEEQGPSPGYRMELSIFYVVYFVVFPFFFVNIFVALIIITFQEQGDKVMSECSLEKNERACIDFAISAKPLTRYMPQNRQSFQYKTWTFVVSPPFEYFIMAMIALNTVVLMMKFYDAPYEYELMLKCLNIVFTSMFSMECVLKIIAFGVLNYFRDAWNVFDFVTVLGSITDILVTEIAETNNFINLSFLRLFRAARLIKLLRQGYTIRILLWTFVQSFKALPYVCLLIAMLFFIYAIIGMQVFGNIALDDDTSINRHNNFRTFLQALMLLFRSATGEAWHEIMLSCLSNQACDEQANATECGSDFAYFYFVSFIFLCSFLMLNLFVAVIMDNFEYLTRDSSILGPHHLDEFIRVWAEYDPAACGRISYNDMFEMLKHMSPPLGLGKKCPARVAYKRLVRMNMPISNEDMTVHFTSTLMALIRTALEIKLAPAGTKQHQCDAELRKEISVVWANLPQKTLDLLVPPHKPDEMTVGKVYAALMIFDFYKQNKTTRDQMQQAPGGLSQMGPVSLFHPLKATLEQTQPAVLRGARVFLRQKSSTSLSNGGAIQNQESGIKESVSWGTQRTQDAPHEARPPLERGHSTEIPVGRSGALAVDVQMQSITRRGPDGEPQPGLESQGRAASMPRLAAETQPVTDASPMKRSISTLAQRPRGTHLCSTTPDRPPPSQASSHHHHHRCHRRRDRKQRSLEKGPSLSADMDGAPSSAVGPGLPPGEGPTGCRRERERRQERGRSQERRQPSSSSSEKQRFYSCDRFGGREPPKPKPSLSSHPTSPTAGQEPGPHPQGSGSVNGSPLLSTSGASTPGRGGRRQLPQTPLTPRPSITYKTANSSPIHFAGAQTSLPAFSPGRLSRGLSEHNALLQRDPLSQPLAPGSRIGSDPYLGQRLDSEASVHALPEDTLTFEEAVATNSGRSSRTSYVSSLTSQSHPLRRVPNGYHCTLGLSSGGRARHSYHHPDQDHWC", "T1 sequence (Q02410 whole entry)": "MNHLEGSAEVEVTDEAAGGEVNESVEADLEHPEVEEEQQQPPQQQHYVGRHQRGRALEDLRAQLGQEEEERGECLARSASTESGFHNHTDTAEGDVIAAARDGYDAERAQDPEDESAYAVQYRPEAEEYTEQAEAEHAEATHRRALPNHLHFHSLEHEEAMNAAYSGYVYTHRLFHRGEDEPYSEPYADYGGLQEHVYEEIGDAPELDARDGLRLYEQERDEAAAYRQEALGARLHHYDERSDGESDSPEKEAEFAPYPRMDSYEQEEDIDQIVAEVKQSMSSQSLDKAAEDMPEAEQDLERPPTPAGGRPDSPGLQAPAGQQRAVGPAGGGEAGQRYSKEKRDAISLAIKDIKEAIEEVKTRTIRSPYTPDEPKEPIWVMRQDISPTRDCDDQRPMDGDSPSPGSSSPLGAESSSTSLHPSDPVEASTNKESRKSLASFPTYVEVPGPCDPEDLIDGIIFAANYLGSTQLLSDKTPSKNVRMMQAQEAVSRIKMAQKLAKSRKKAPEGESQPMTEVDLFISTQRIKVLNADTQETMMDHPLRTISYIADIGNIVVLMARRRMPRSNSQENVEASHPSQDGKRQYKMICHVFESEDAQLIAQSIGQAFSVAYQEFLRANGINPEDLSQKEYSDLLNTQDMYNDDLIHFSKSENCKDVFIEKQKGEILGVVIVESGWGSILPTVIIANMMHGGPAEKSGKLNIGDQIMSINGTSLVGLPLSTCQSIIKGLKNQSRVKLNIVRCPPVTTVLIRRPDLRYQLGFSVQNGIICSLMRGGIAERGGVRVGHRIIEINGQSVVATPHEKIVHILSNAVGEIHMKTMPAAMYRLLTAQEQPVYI", "format": "protein assay"}, "[3]": {"target": "T2, Carboxy-terminal domain RNA polymerase II polypeptide A small phosphatase 1 (Homo sapiens, UniProt Q9GZU7)", "T2 sequence (Q9GZU7 whole entry)": "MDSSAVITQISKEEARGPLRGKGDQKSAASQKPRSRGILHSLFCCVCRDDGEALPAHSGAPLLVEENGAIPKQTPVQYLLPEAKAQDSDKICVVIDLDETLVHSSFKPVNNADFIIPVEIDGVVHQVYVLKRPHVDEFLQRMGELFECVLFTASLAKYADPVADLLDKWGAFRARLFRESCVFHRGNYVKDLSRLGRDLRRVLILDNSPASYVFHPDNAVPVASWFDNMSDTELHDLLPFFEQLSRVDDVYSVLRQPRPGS", "experiment": "inhibitors of CTDSP1, concentration-response testing, biochemical assay, absorbance-based, actives from ultra-high-throughput screening (AID 540297)", "format": "functional"}, "[4]": {"target": "T1, Voltage-gated N-type calcium channel alpha-1B subunit/Amyloid beta A4 precursor protein-binding family A member 1", "format": "protein assay", "remark": "listed apart in the source"}, "[5]": {"target": "Mitogen-activated protein kinase 10 (Homo sapiens, UniProt P53779)", "sequence (P53779 whole entry)": "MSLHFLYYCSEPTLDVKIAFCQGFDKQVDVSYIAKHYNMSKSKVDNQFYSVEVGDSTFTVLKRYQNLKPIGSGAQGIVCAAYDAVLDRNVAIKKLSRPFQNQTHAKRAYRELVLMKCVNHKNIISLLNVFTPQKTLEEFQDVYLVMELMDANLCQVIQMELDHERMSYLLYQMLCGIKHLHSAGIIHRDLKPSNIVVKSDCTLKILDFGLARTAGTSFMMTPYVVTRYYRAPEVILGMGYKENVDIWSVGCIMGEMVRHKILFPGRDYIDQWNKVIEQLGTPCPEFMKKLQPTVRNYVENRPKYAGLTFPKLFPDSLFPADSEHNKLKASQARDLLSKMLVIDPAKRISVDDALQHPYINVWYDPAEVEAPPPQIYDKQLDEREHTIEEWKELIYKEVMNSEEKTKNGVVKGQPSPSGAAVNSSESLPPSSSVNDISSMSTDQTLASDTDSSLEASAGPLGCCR", "experiment": "Dose response biochemical screening assay for inhibitors of c-Jun N-Terminal Kinase 3 (JNK3). [Related pubchem assays: 746 ]"}, "[6]": {"target": "T3, Tyrosine-protein phosphatase non-receptor type 7 (Homo sapiens, UniProt P35236)", "T3 sequence (P35236 whole entry)": "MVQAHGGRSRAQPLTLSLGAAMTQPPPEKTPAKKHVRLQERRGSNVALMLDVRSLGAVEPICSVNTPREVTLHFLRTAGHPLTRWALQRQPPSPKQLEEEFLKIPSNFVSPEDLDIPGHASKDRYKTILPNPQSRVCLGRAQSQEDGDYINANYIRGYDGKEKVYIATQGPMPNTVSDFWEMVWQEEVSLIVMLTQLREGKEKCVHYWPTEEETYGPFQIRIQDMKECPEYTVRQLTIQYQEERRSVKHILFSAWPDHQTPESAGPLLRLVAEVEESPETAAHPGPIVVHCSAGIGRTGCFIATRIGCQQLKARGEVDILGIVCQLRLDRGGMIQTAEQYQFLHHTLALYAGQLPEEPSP", "experiment": "inhibitors of human HePTP phosphatase, […], biochemical, absorbance, leukemia target (AID 521)", "format": "functional"}, "[7]": {"experiment": "cytotoxicity toward DRD oncogenic fibroblasts, dose response, cell-based, non-viral oncogenic, luminescence (AID 1934)", "format": "functional", "conditions": "Homo sapiens"}, "[8]": {"system": "BJ", "experiment": "cytotoxicity toward BJ-TERT-LT-ST fibroblasts, dose response, cell-based, RAS-independent, luminescence (AID 1935);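 also: BJ fibroblasts immortalized with TERT plus LT and ST oncogenes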", "format": "functional", "conditions": "Homo sapiens"}, "[9]": {"experiment": "HepG2 cell cytotoxicity, dose response, cytotoxicity control for Shn3 inhibitor project, CellTiter-Glo, cherry-picked (AID 624134)", "format": "functional, cell-based"}, "[10]": {"experiment": "Shn3 3'UTR reporter inhibitors, dose response, cell-based, Clone20 osteoblasts, firefly luciferase, cherry-picked (AID 624132)", "format": "functional"}, "[11]": {"experiment": "control 3'UTR Renilla luciferase suppression, dose response, counter-screen for Shn3 inhibitor project, cell-based, Clone20-Shn3RL, cherry-picked (AID 624133)", "format": "functional"}, "[12]": {"target": "T4, COUP transcription factor 2 (Homo sapiens, UniProt P24468)", "T4 sequence (P24468 whole entry)": "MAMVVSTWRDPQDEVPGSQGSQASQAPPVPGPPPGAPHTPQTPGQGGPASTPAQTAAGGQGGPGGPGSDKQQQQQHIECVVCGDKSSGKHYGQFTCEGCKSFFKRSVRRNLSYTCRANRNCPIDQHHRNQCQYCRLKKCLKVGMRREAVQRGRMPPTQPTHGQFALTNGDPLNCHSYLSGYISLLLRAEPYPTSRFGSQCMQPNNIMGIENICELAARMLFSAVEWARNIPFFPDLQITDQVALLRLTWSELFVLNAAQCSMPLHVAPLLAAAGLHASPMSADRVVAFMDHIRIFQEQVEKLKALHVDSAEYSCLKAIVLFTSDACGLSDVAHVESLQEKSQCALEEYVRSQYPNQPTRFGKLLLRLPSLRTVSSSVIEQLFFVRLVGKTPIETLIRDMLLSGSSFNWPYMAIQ", "experiment": "Luminescence-based cell-based high throughput dose response assay to identify inhibitors of COUP-TFII (NR2F2).", "format": "functional"}, "[13]": {"target": "E3 ubiquitin-protein ligase Mdm2 (Homo sapiens, UniProt Q00987)", "sequence (Q00987 whole entry)": "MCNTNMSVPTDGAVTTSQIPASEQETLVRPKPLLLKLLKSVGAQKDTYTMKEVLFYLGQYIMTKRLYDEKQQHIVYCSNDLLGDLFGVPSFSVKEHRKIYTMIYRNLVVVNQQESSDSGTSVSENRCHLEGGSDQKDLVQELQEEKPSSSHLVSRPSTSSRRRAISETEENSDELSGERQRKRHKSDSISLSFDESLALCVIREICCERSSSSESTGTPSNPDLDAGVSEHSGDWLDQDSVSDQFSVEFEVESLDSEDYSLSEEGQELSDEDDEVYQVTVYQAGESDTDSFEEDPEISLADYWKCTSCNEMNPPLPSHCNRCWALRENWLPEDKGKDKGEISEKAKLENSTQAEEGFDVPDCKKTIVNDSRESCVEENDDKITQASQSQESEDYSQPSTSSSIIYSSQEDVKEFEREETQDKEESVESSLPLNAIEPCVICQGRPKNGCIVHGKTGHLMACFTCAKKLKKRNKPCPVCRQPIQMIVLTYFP", "experiment": "enhancers of MDM2-luciferase reporter signal, concentration-effect titration, project on inhibitors of MDM2 ubiquitin ligase, cellular assay, luminescent readout, 384-well plate format (AID 1394);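 also: MDM2 E3 inhibitors raise luminescence so EC50 is for signal enhancement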", "format": "functional"}, "[14]": {"experiment": "LGR2 antagonists, dose response, cell-based, HEK293, CRE-luciferase reporter, cherry pick, set 2 (AID 743343);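 also: transfected cells were stimulated with diluted bursicon conditioned medium after compound addition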", "format": "functional"}, "[15]": {"system": "Vero", "experiment": "cells", "format": "functional, cell-based", "conditions": "Chlorocebus sabaeus"}, "[16]": {"experiment": "A549 cell cytotoxicity, dose response, cytotoxicity control, plate reader, cherry-pick, antagonist series (AID 743412)", "format": "functional, cell-based"}, "[17]": {"system": "BJ", "experiment": "cytotoxicity toward BJ-TERT fibroblasts, dose response, cell-based, RAS-independent, luminescence (AID 1933)", "format": "functional", "conditions": "Homo sapiens"}, "[18]": {"system": "BJ", "experiment": "cells", "format": "functional, cell-based", "conditions": "Homo sapiens"}, "[19]": {"experiment": "HepG2 cell cytotoxicity, dose response, cytotoxicity control, plate reader, cherry-pick, antagonist series (AID 743416)", "format": "functional, cell-based"}, "[20]": {"experiment": "HEK293 cell cytotoxicity, dose response, cytotoxicity control, plate reader, cherry-picked samples (AID 743446)", "format": "functional, cell-based"}, "[21]": {"experiment": "MC4R antagonists, dose response, counter-screen for LGR2 antagonist project, cell-based, plate reader, cherry pick (AID 743444);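 also: transfected HEK 293 cells stimulated with alpha-MSH peptide; potency of inhibitors of the alpha-MSH evoked signal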", "format": "functional"}, "[22]": {"system": "Vero", "experiment": "cells", "format": "functional, Chlorocebus sabaeus", "conditions": "Chlorocebus sabaeus, Vero"}, "[23]": {"target": "5-hydroxytryptamine receptor 1A (Homo sapiens, UniProt P08908)", "sequence (P08908 whole entry)": "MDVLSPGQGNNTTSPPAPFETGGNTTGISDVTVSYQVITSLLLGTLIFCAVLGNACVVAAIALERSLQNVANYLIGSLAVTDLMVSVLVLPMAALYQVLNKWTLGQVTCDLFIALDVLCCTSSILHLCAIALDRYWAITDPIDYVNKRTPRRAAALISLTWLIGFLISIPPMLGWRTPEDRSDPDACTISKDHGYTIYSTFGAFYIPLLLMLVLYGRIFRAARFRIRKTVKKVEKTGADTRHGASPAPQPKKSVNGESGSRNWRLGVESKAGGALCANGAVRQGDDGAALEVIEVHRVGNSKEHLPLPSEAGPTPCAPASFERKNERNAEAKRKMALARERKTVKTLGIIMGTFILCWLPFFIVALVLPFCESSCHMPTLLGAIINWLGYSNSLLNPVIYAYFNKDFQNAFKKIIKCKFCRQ", "format": "functional"}}, "note": "The source made the active and inactive calls.", "data": [{"smiles": "COc1ccc(NS(=O)(=O)c2cccc(C(=O)NNC(=O)c3cccn3C)c2)cc1", "values": [{"measurement": "IC50", "setting": "[1]", "result": "> 100 µM (active)"}, {"measurement": "IC50", "setting": "[2]", "result": "> 50 µM (inactive)"}, {"measurement": "IC50", "setting": "[3]", "result": "5.42 µM (active)"}, {"measurement": "IC50", "setting": "[4]", "result": "23.5 µM (active)"}]}, {"smiles": "CC(C)n1nc(C(=O)OCC(=O)N(C)C2CCS(=O)(=O)C2)c2ccccc2c1=O", "note": "(stereo not drawn)", "values": [{"measurement": "IC50", "setting": "[5]", "result": "35.5 µM (not active)"}]}, {"smiles": "CCn1c(COc2ccc(Cl)c(C)c2)nnc1SCC(=O)N1CCCC1", "values": [{"measurement": "IC50", "setting": "[6]", "result": "> 100 µM (not active)"}]}, {"smiles": "CCSc1nc2ccccc2n1C(=O)/C=C/c1ccc(OC)c(OC)c1", "values": [{"measurement": "EC50", "setting": "[7]", "result": "5.41 µM (inconclusive)"}, {"measurement": "EC50", "setting": "[8]", "result": "13.6 µM (active)"}, {"measurement": "AC50", "setting": "[9]", "result": "47 µM (active)"}, {"measurement": "AC50", "setting": "[10]", "result": "0.962 µM (active)"}, {"measurement": "AC50", "setting": "[11]", "result": "7.89 µM (active)"}, {"measurement": "IC50", "setting": "[12]", "result": "8.54 µM (active)"}, {"measurement": "EC50", "setting": "[13]", "result": "2.65 µM (active)"}, {"measurement": "AC50", "setting": "[14]", "result": "4.61 µM (active)"}, {"measurement": "IC50", "setting": "[15]", "result": "10.4 µM (active)"}, {"measurement": "AC50", "setting": "[16]", "result": "5.61 µM (active)"}, {"measurement": "EC50", "setting": "[17]", "result": "> 150 µM (not active)"}, {"measurement": "EC50", "setting": "[18]", "result": "> 75 µM (inconclusive)"}, {"measurement": "AC50", "setting": "[19]", "result": "12.9 µM (active)"}, {"measurement": "AC50", "setting": "[20]", "result": "5.58 µM (active)"}, {"measurement": "AC50", "setting": "[21]", "result": "5.86 µM (active)"}, {"measurement": "CC50", "setting": "[22]", "result": "20.2 µM (active)"}]}, {"smiles": "CCN(CC)c1nc(N2CCOCC2)c(C#N)c2c1CN(C)CC2", "values": [{"measurement": "EC50", "setting": "[23]", "result": "> 50 µM (not active)"}]}]}
